Results published in publication PMC13198257, “An aerosolized dual-action autotaxin inhibitor-PPARγ agonist for the treatment of pulmonary fibrosis” (Cell Reports Medicine, 2026).

System: lung gene expression
Assay: RNA sequencing of lung tissue (BLM/EL244 vs BLM)
Format: in vivo, mouse
Conditions: lung tissue of BLM-treated mice, BLM/EL244 vs BLM
Protocol: RNA quality was assessed using an Agilent TapeStation 4150 with the High Sensitivity […] ScreenTape (Agilent), according to the manufacturer’s protocols. For library preparation, the QuantSeq 3’mRNA-Seq Library Prep Kit (Lexogen) was used according to manufacturer’s instructions. Briefly, 500 ng of RNA from each sample was used for first-strand synthesis, followed by RNA template removal, and second-strand synthesis initiated by random primers. In-line barcodes were introduced at this step, and this was followed by magnetic bead-based purification. The resulting libraries were amplified for 15 cycles and re-purified, with quantity and quality assessed on a Qubit 4 Fluorometer with the Invitrogen Qubit dsDNA HS Assay and an Agilent Tapestation 4150 with the High Sensitivity D1000 assay kit, respectively. The quantified libraries were pooled equimolarly; 50ng of total library mix was used for Adapter Conversion PCR Amplification using the Universal Library Conversion Kit (App-A), Version: V1.0 (MGI Tech Co., Ltd.), according to the manufacturer’s instructions.
The quantity and quality of the purified adapter conversion PCR (AC-PCR) product were evaluated on a Qubit 4 Fluorometer with the Invitrogen Qubit dsDNA HS Assay and on an Agilent Tapestation 4150 with the High Sensitivity D1000 assay kit, respectively. This was followed by DNA denaturation, Single-Strand Circularisation, Enzymatic Digestion, Enzymatic Digestion Product Cleanup and Quality Control steps on 1 pmol of AC-PCR product, according to the Universal Library Conversion Kit (App-A) User Manual (Version: A3).
Finally, 60 fmol of ssCirDNA were used for DNB preparation and sequencing on a DNBSEQ-G400 platform at the BSRC Alexander Fleming Genomics Facility, using a G400 App-A FCS SE100 High-throughput Sequencing Set (MGI Tech Co., Ltd.), according to the manufacturer’s instructions.
Alignment of the FASTQ files was performed against the mouse genome build mm10 using a custom Bash script.[143] Read counting on the 3′ UTRs and differential expression analysis were conducted using the metaseqR2 bioconductor package.[144] Genes corresponding to the following biotypes were excluded: polymorphic_pseudogene, processed_transcript, pseudogene, IG_V_pseudogene, misc_RNA, IG_C_gene, IG_J_gene, IG_D_gene, IG_LV_gene, TR_V_gene, TR_V_pseudogene, TEC, and processed_pseudogene. Gene counts were normalized with DESEQ[145] through metaseqR2. Genes with more than 10 counts in at least 50% of the samples were kept for further processing. For differential expression analysis, the PANDORA algorithm[146] was used to estimate a meta p-value integrating the results from the DESEQ, DESEQ2,[147] edgeR,[148] limma,[149] NBPSeq,[150] and NOISeq[151] algorithms. All additional parameters were set to default values.
Pathway enrichment analysis was performed for the Gene Ontology Biological process (BP) and Molecular Function (MF) terms through GeneCodis 4.[152] The volcano plots, scatterplots, Venn diagrams, and dot plots were generated using the ggplot2 Bioconductor package.

## O=C1NC(=O)C(Cc2ccc(OCCC3CCN(C(=O)OCc4cc(Cl)cc(Cl)c4)CC3)cc2)S1 (centres unmarked) [EL244, 3,5-dichlorobenzyl 4-(2-(4-((2,4-dioxothiazolidin-5-yl)methyl)phenoxy)ethyl)piperidine-1-carboxylate]
  Ces2g log2 nFC: 0.83
  Ces2g nFC: 1.78
  Cfap43 log2 nFC: 0.88
  Cfap43 nFC: 1.84
  Cfap100 log2 nFC: 0.89
  Cfap100 nFC: 1.85
  Cfap206 log2 nFC: 0.77
  Cfap206 nFC: 1.70
  Cftr log2 nFC: 0.96
  Cftr nFC: 1.95
  Cldn5 log2 nFC: 0.97
  Cldn5 nFC: 1.96
  Cpm log2 nFC: 0.68
  Cpm nFC: 1.60
  Crebl2 log2 nFC: 0.79
  Crebl2 nFC: 1.73
  Crem log2 nFC: 0.68
  Crem nFC: 1.60
  Crispld2 log2 nFC: 0.80
  Crispld2 nFC: 1.74
  Cry2 log2 nFC: 0.70
  Cry2 nFC: 1.62
  Csrnp1 log2 nFC: 0.83
  Csrnp1 nFC: 1.78
  Ctla2a log2 nFC: 0.72
  Ctla2a nFC: 1.65
  Ctla2b log2 nFC: 0.96
  Ctla2b nFC: 1.94
  Cyp2d22 log2 nFC: 0.97
  Cyp2d22 nFC: 1.97
  Cyp2f2 log2 nFC: 0.79
  Cyp2f2 nFC: 1.72
  Dgkh log2 nFC: 0.84
  Dgkh nFC: 1.79
  Dnali1 log2 nFC: 0.73
  Dnali1 nFC: 1.66
  Dok4 log2 nFC: 0.74
  Dok4 nFC: 1.67
  Dpep1 log2 nFC: 0.71
  Dpep1 nFC: 1.63
  Dusp1 log2 nFC: 0.86
  Dusp1 nFC: 1.82
  Ednrb log2 nFC: 0.97
  Ednrb nFC: 1.96
  Elmod1 log2 nFC: 0.89
  Elmod1 nFC: 1.86
  Eng log2 nFC: 0.81
  Eng nFC: 1.76
  Errfi1 log2 nFC: 0.95
  Errfi1 nFC: 1.93
  Fabp3 log2 nFC: 0.98
  Fabp3 nFC: 1.97
  Fmo1 log2 nFC: 0.86
  Fmo1 nFC: 1.81
  Fmo2 log2 nFC: 1.00
  Fmo2 nFC: 2.00
  Fos log2 nFC: 1.02
  Fos nFC: 2.03
  Fxyd1 log2 nFC: 0.80
  Fxyd1 nFC: 1.75
  Fzd4 log2 nFC: 0.69
  Fzd4 nFC: 1.61
  Galnt15 log2 nFC: 0.89
  Galnt15 nFC: 1.85
  Gm26236 log2 nFC: 1.03
  Gm26236 nFC: 2.04
  Gm47291 log2 nFC: 0.98
  Gm47291 nFC: 1.98
  Gm49391 log2 nFC: 0.96
  Gm49391 nFC: 1.95
  Gnao1 log2 nFC: 0.85
  Gnao1 nFC: 1.80
  Gpm6a log2 nFC: 0.83
  Gpm6a nFC: 1.78
  Gpr155 log2 nFC: 0.76
  Gpr155 nFC: 1.69
  Gprasp1 log2 nFC: 0.72
  Gprasp1 nFC: 1.64
  Gpt log2 nFC: 0.73
  Gpt nFC: 1.66
  Gsn log2 nFC: 1.06
  Gsn nFC: 2.08
  Gstm1 log2 nFC: 0.75
  Gstm1 nFC: 1.68
  Hecw2 log2 nFC: 0.81
  Hecw2 nFC: 1.75
  Hlf log2 nFC: 0.89
  Hlf nFC: 1.86
  Igf1r log2 nFC: 0.70
  Igf1r nFC: 1.63
  Il6ra log2 nFC: 0.84
  Il6ra nFC: 1.79
  Iqca log2 nFC: 0.87
  Iqca nFC: 1.83
  Itga8 log2 nFC: 0.88
  Itga8 nFC: 1.85
  Itih4 log2 nFC: 0.88
  Itih4 nFC: 1.84
  Iyd log2 nFC: 1.04
  Iyd nFC: 2.05
  Jdp2 log2 nFC: 0.71
  Jdp2 nFC: 1.64
  Klf3 log2 nFC: 0.69
  Klf3 nFC: 1.62
  Klf4 log2 nFC: 0.72
  Klf4 nFC: 1.64
  Klf9 log2 nFC: 0.85
  Klf9 nFC: 1.80
  Klrd1 log2 nFC: 0.95
  Klrd1 nFC: 1.93
  Kndc1 log2 nFC: 1.05
  Kndc1 nFC: 2.07
  Krt23 log2 nFC: 0.69
  Krt23 nFC: 1.61
  Lncpint log2 nFC: 1.06
  Lncpint nFC: 2.08
  Lpin1 log2 nFC: 0.80
  Lpin1 nFC: 1.75
  Lrrc74b log2 nFC: 1.02
  Lrrc74b nFC: 2.03
  Ltbp4 log2 nFC: 0.81
  Ltbp4 nFC: 1.76
  Lyve1 log2 nFC: 0.96
  Lyve1 nFC: 1.94
  Map3k6 log2 nFC: 0.95
  Map3k6 nFC: 1.93
  Mapt log2 nFC: 0.89
  Mapt nFC: 1.85
  Mcf2l log2 nFC: 0.95
  Mcf2l nFC: 1.93
  Mettl7a1 log2 nFC: 0.80
  Mettl7a1 nFC: 1.75
  Mir29c log2 nFC: 0.89
  Mir29c nFC: 1.85
  Mir1668 log2 nFC: 0.75
  Mir1668 nFC: 1.69
  Mir6899 log2 nFC: 0.84
  Mir6899 nFC: 1.80
  Mtcl1 log2 nFC: 0.73
  Mtcl1 nFC: 1.66
  Ndrg2 log2 nFC: 0.88
  Ndrg2 nFC: 1.84
  Nek5 log2 nFC: 0.81
  Nek5 nFC: 1.76
  Nova2 log2 nFC: 0.90
  Nova2 nFC: 1.86
  Nr1d1 log2 nFC: 0.84
  Nr1d1 nFC: 1.79
  Nrgn log2 nFC: 1.04
  Nrgn nFC: 2.05
  Nrxn2 log2 nFC: 0.88
  Nrxn2 nFC: 1.84
  Ogn log2 nFC: 0.86
  Ogn nFC: 1.82
  Osgin1 log2 nFC: 0.74
  Osgin1 nFC: 1.68
  Pcolce2 log2 nFC: 0.98
  Pcolce2 nFC: 1.97
  Pcp4l1 log2 nFC: 0.75
  Pcp4l1 nFC: 1.68
  Phactr1 log2 nFC: 0.74
  Phactr1 nFC: 1.67
  Phf1 log2 nFC: 0.75
  Phf1 nFC: 1.68
  Pla2g1b log2 nFC: 0.79
  Pla2g1b nFC: 1.72
  Plxna2 log2 nFC: 0.78
  Plxna2 nFC: 1.72
  Ppargc1a log2 nFC: 0.86
  Ppargc1a nFC: 1.82
  Ppl log2 nFC: 0.87
  Ppl nFC: 1.83
  Prob1 log2 nFC: 0.76
  Prob1 nFC: 1.70
  Ptgfr log2 nFC: 0.93
  Ptgfr nFC: 1.90
  Pxdc1 log2 nFC: 0.83
  Pxdc1 nFC: 1.78
  Rapgef5 log2 nFC: 0.88
  Rapgef5 nFC: 1.84
  Rara log2 nFC: 0.73
  Rara nFC: 1.66
  Rgs9 log2 nFC: 1.01
  Rgs9 nFC: 2.02
  Rora log2 nFC: 0.80
  Rora nFC: 1.74
  S1pr4 log2 nFC: 0.94
  S1pr4 nFC: 1.91
  Scn3a log2 nFC: 0.75
  Scn3a nFC: 1.68
  Scube2 log2 nFC: 0.74
  Scube2 nFC: 1.68
  Sec14l3 log2 nFC: 0.69
  Sec14l3 nFC: 1.62
  Sec14l4 log2 nFC: 0.77
  Sec14l4 nFC: 1.70
  Sell log2 nFC: 1.03
  Sell nFC: 2.04
  Sema3g log2 nFC: 0.78
  Sema3g nFC: 1.72
  Sftpa1 log2 nFC: 0.70
  Sftpa1 nFC: 1.62
  Sgip1 log2 nFC: 0.90
  Sgip1 nFC: 1.87
  Sgms1 log2 nFC: 0.71
  Sgms1 nFC: 1.63
  Slc2a4rg-ps log2 nFC: 0.85
  Slc2a4rg-ps nFC: 1.80
  Slc7a10 log2 nFC: 0.97
  Slc7a10 nFC: 1.96
  Slc16a11 log2 nFC: 0.79
  Slc16a11 nFC: 1.73
  Slc43a3 log2 nFC: 0.73
  Slc43a3 nFC: 1.66
  Slit3 log2 nFC: 1.02
  Slit3 nFC: 2.03
  Snora21 log2 nFC: 0.75
  Snora21 nFC: 1.68
  Sntb1 log2 nFC: 0.72
  Sntb1 nFC: 1.64
  Sorbs1 log2 nFC: 0.70
  Sorbs1 nFC: 1.62
  Sorbs3 log2 nFC: 0.80
  Sorbs3 nFC: 1.74
  Srcin1 log2 nFC: 0.91
  Srcin1 nFC: 1.87
  Stard8 log2 nFC: 0.69
  Stard8 nFC: 1.61
  Syne1 log2 nFC: 0.70
  Syne1 nFC: 1.62
